Reference: ChEMBL document CHEMBL1145362, “Structure-activity relationships of SERMs optimized for uterine antagonism and ovarian safety” (Bioorg Med Chem Lett, 2007)

How the values were obtained:
[1] = Drug level in Sprague-Dawley rat plasma at 10 mg/kg, po after 6 hrs; format: ADME, organism-based; parameters: dose 10 mg/kg, route oral; conditions: read-out: Drug uptake
[2] = Ratio of log of drug level in brain to blood in Sprague-Dawley rat; format: ADME, tissue-based; conditions: read-out: logBB (converted)
[3] = Drug level in Sprague-Dawley rat brain at 10 mg/kg, po after 6 hrs; format: ADME, organism-based; parameters: dose 10 mg/kg, route oral; conditions: read-out: Drug uptake
Ishikawa [4] = test: Inhibition of estrogen stimulation in human Ishikawa cells by alkaline phosphatase quantitation; format: functional, cell-based; conditions: for IC50: Homo sapiens, Ishikawa
Rattus norvegicus [5] = test: Inhibition of estrogen stimulation in Sprague-Dawley rat at 10 mg/kg; format: functional
Ishikawa [6] = test: Increase in estrogen stimulation in human Ishikawa cells by alkaline phosphatase quantitation at 1 uM relative to control; format: functional
Estrogen receptor beta = Estrogen receptor beta (Homo sapiens, UniProt Q92731); test: Displacement of [3H]estradiol from human recombinant ERbeta
Rattus norvegicus [7] = test: Inhibition of estradiol-induced increase in uterine wet weight in orally dosed Sprague-Dawley rat after 3 days; format: functional; conditions: po, 72 h
Estrogen receptor = target: T1, Estrogen receptor (Homo sapiens, UniProt P03372)
T1 sequence (P03372 whole entry): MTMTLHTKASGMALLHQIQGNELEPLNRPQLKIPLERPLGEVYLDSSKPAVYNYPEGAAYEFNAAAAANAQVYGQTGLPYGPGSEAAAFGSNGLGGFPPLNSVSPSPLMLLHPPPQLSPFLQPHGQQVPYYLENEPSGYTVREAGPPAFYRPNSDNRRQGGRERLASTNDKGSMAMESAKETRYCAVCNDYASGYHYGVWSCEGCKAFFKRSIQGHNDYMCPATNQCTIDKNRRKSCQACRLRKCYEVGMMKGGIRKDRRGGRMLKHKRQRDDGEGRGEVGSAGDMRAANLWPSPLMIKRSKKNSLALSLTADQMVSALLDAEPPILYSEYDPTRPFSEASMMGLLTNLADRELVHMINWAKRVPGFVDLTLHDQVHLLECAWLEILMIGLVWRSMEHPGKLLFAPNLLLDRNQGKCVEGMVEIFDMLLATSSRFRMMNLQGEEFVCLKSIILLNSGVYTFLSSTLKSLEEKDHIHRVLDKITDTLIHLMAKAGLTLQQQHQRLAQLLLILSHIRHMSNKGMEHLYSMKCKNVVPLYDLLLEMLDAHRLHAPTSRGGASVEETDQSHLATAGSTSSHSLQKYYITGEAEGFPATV
Description: Displacement of [3H]estradiol from human recombinant ERalpha

Rattus norvegicus [8] = test: Increase in uterine wet weight in Sprague-Dawley rat at 0.1 mg/kg; format: functional

Chain of Estrogen receptor beta (Q92731 whole entry): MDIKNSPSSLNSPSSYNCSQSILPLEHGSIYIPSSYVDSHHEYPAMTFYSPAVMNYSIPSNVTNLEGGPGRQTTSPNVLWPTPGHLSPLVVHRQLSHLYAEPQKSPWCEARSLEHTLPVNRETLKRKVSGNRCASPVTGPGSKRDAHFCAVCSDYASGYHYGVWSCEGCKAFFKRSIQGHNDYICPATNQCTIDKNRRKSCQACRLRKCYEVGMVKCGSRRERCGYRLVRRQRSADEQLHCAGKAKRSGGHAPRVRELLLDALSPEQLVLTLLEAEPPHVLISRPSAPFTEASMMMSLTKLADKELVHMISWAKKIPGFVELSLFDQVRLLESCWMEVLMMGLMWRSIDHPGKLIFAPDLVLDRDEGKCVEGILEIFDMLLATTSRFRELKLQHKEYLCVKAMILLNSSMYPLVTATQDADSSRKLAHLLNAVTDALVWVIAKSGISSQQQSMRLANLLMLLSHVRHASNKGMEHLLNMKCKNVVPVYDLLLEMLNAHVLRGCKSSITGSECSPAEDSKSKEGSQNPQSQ

Compound: CS(=O)(=O)c1ccc(-c2ccc3cc(O)ccc3c2Oc2ccc(OCCN3CCCCC3)cc2)cc1
- concentration at 6 h [1]: 660 ng/mL
- Kp [2]: 0.155
- concentration at 6 h [3]: 103 ng/g

Compound: CCS(=O)(=O)c1ccc(-c2sc3cc(O)ccc3c2Oc2ccc(OCCN3CCCCC3)cc2)cc1
- Efficacy (Ishikawa [4]): 95%
- IC50 (Ishikawa [4]): 14.5 nM
- ED50 (Rattus norvegicus [5]): < 1 mg/kg
- inhibition in vivo at 10 mg/kg (Rattus norvegicus [5]): 83%
- Efficacy (Ishikawa [6]): 16%
- Ki (Estrogen receptor beta): 15.7 nM
- ED50 (Rattus norvegicus [7]): 0.56 mg/kg

Compound: CC(C)S(=O)(=O)c1ccc(-c2ccc3cc(O)ccc3c2Oc2ccc(OCCN3CCCCC3)cc2)cc1
- Efficacy (Ishikawa [4]): 96%
- IC50 (Ishikawa [4]): 4.9 nM
- ED50 (Rattus norvegicus [5]): < 1 mg/kg
- inhibition in vivo at 10 mg/kg (Rattus norvegicus [5]): 83%
- Ki (Estrogen receptor): 0.73 nM
- Efficacy (Ishikawa [6]): 11%
- Ki (Estrogen receptor beta): 2.17 nM
- ED50 (Rattus norvegicus [7]): 0.37 mg/kg

Compound: C#CC1(O)CC[C@H]2[C@@H]3CCc4cc(O)ccc4[C@H]3CC[C@@]21C (single isomer, unassigned) [ETHINYL ESTRADIOL]
- Fold change (Rattus norvegicus [8]): 3

Compound: O=S1(=O)CC=C(c2ccc3cc(O)ccc3c2Oc2ccc(OCCN3CCCCC3)cc2)CC1
- Efficacy (Ishikawa [4]): 98%
- IC50 (Ishikawa [4]): 7.2 nM
- ED50 (Rattus norvegicus [5]): < 1 mg/kg
- inhibition in vivo at 10 mg/kg (Rattus norvegicus [5]): 83%
- Ki (Estrogen receptor): 1.03 nM
- Efficacy (Ishikawa [6]): 19%
- Ki (Estrogen receptor beta): 2.1 nM
- ED50 (Rattus norvegicus [7]): 0.25 mg/kg

Compound: CC(C)c1ccc(-c2sc3cc(O)ccc3c2Oc2ccc(OCCN3CCCCC3)cc2)cc1
- Efficacy (Ishikawa [4]): 95%
- IC50 (Ishikawa [4]): 16.2 nM
- ED50 (Rattus norvegicus [5]): < 1 mg/kg
- inhibition in vivo at 10 mg/kg (Rattus norvegicus [5]): 83%
- Ki (Estrogen receptor): 0.091 nM
- Efficacy (Ishikawa [6]): 29%
- Ki (Estrogen receptor beta): 0.63 nM
- ED50 (Rattus norvegicus [7]): 0.16 mg/kg

Compound: CCS(=O)(=O)c1ccc(-c2ccc3cc(O)ccc3c2Oc2ccc(OCCN3CCCCC3)cc2)cc1
- concentration at 6 h [1]: 357 ng/mL
- Efficacy (Ishikawa [4]): 95%
- IC50 (Ishikawa [4]): 6.1 nM
- ED50 (Rattus norvegicus [5]): < 1 mg/kg
- inhibition in vivo at 10 mg/kg (Rattus norvegicus [5]): 83%
- Ki (Estrogen receptor): 1.22 nM
- Kp [2]: 0.12
- concentration at 6 h [3]: 43 ng/g
- Efficacy (Ishikawa [6]): 19%
- Ki (Estrogen receptor beta): 4.19 nM
- ED50 (Rattus norvegicus [7]): 0.14 mg/kg

Compound: Oc1ccc2c(Oc3ccc(OCCN4CCCCC4)cc3)c(-c3cccc(F)c3)ccc2c1
- concentration at 6 h [1]: 137 ng/mL
- Efficacy (Ishikawa [4]): 97%
- IC50 (Ishikawa [4]): 4.8 nM
- ED50 (Rattus norvegicus [5]): < 1 mg/kg
- inhibition in vivo at 10 mg/kg (Rattus norvegicus [5]): 83%
- Ki (Estrogen receptor): 0.18 nM
- Kp [2]: 5.37
- concentration at 6 h [3]: 730 ng/g
- Efficacy (Ishikawa [6]): 15%
- Ki (Estrogen receptor beta): 0.16 nM
- ED50 (Rattus norvegicus [7]): 0.23 mg/kg

Compound: CS(=O)(=O)c1ccc(-c2sc3cc(O)ccc3c2Oc2ccc(OCCN3CCCCC3)cc2)cc1
- Efficacy (Ishikawa [4]): 97%
- IC50 (Ishikawa [4]): 22.2 nM
- ED50 (Rattus norvegicus [5]): < 1 mg/kg
- inhibition in vivo at 10 mg/kg (Rattus norvegicus [5]): 83%
- Ki (Estrogen receptor): 0.63 nM
- Efficacy (Ishikawa [6]): 24%
- Ki (Estrogen receptor beta): 13.6 nM
- ED50 (Rattus norvegicus [7]): 0.62 mg/kg

Compound: CS(=O)(=O)C1CC=C(c2ccc3cc(O)ccc3c2Oc2ccc(OCCN3CCCCC3)cc2)CC1 (centres undefined)
- Efficacy (Ishikawa [4]): 99%
- IC50 (Ishikawa [4]): 8 nM
- ED50 (Rattus norvegicus [5]): < 1 mg/kg
- inhibition in vivo at 10 mg/kg (Rattus norvegicus [5]): 83%
- Ki (Estrogen receptor): 1.09 nM
- Efficacy (Ishikawa [6]): 24%
- Ki (Estrogen receptor beta): 2.69 nM
- ED50 (Rattus norvegicus [7]): 0.26 mg/kg

Compound: Oc1ccc2c(Oc3ccc(OCCN4CCCCC4)cc3)c(-c3ccc(F)cc3)ccc2c1
- concentration at 6 h [1]: 151 ng/mL
- Efficacy (Ishikawa [4]): 93%
- IC50 (Ishikawa [4]): 3.2 nM
- ED50 (Rattus norvegicus [5]): < 1 mg/kg
- inhibition in vivo at 10 mg/kg (Rattus norvegicus [5]): 83%
- Ki (Estrogen receptor): 0.24 nM
- Kp [2]: 17.8
- concentration at 6 h [3]: 2690 ng/g
- Efficacy (Ishikawa [6]): 21%
- Ki (Estrogen receptor beta): 0.28 nM
- ED50 (Rattus norvegicus [7]): 0.015 mg/kg

Compound: O=S1(=O)CCC(c2ccc3cc(O)ccc3c2Oc2ccc(OCCN3CCCCC3)cc2)CC1
- Efficacy (Ishikawa [4]): 93%
- IC50 (Ishikawa [4]): 15.7 nM
- ED50 (Rattus norvegicus [5]): < 1 mg/kg
- inhibition in vivo at 10 mg/kg (Rattus norvegicus [5]): 83%
- Ki (Estrogen receptor): 1.89 nM
- Efficacy (Ishikawa [6]): 27%
- Ki (Estrogen receptor beta): 4.11 nM
- ED50 (Rattus norvegicus [7]): 0.34 mg/kg

Compound: CN(C)C(=O)c1ccc(-c2ccc3cc(O)ccc3c2Oc2ccc(OCCN3CCCCC3)cc2)cc1
- Efficacy (Ishikawa [4]): 95%
- IC50 (Ishikawa [4]): 6.7 nM
- ED50 (Rattus norvegicus [5]): < 1 mg/kg
- inhibition in vivo at 10 mg/kg (Rattus norvegicus [5]): 83%
- Ki (Estrogen receptor): 0.57 nM
- Efficacy (Ishikawa [6]): 25%
- Ki (Estrogen receptor beta): 1.16 nM
- ED50 (Rattus norvegicus [7]): 0.19 mg/kg

Compound: N#Cc1cccc(-c2ccc3cc(O)ccc3c2Oc2ccc(OCCN3CCCCC3)cc2)c1
- concentration at 6 h [1]: 360 ng/mL
- Efficacy (Ishikawa [4]): 94%
- IC50 (Ishikawa [4]): 18.5 nM
- ED50 (Rattus norvegicus [5]): < 1 mg/kg
- inhibition in vivo at 10 mg/kg (Rattus norvegicus [5]): 83%
- Ki (Estrogen receptor): 0.24 nM
- concentration at 6 h [3]: 529 ng/g
- Efficacy (Ishikawa [6]): 23%
- Ki (Estrogen receptor beta): 0.35 nM
- ED50 (Rattus norvegicus [7]): 0.37 mg/kg

Compound: CN(C)S(=O)(=O)c1ccc(-c2ccc3cc(O)ccc3c2Oc2ccc(OCCN3CCCCC3)cc2)cc1
- concentration at 6 h [1]: 108 ng/mL
- Efficacy (Ishikawa [4]): 99%
- IC50 (Ishikawa [4]): 2.8 nM
- ED50 (Rattus norvegicus [5]): < 1 mg/kg
- inhibition in vivo at 10 mg/kg (Rattus norvegicus [5]): 83%
- Ki (Estrogen receptor): 0.4 nM
- Kp [2]: 0.427
- concentration at 6 h [3]: 46 ng/g
- Efficacy (Ishikawa [6]): 27%
- Ki (Estrogen receptor beta): 1.69 nM
- ED50 (Rattus norvegicus [7]): 0.44 mg/kg

Compound: Oc1ccc2c(Oc3ccc(OCCN4CCCCC4)cc3)c(-c3ccc(F)c(F)c3)ccc2c1
- concentration at 6 h [1]: 418 ng/mL
- Efficacy (Ishikawa [4]): 96%
- IC50 (Ishikawa [4]): 3.9 nM
- ED50 (Rattus norvegicus [5]): < 1 mg/kg
- inhibition in vivo at 10 mg/kg (Rattus norvegicus [5]): 83%
- Ki (Estrogen receptor): 0.2 nM
- Kp [2]: 8.32
- concentration at 6 h [3]: 3490 ng/g
- Efficacy (Ishikawa [6]): 13%
- Ki (Estrogen receptor beta): 0.29 nM
- ED50 (Rattus norvegicus [7]): 0.058 mg/kg

Compound: Oc1cccc(-c2ccc3cc(O)ccc3c2Oc2ccc(OCCN3CCCCC3)cc2)c1
- concentration at 6 h [1]: 211 ng/mL
- Efficacy (Ishikawa [4]): 100%
- IC50 (Ishikawa [4]): 2.1 nM
- ED50 (Rattus norvegicus [5]): < 1 mg/kg
- inhibition in vivo at 10 mg/kg (Rattus norvegicus [5]): 83%
- Ki (Estrogen receptor): 0.21 nM
- Kp [2]: 0.269
- concentration at 6 h [3]: 57 ng/g
- Efficacy (Ishikawa [6]): 26%
- Ki (Estrogen receptor beta): 0.36 nM
- ED50 (Rattus norvegicus [7]): 0.13 mg/kg

Compound: Oc1ccc(-c2ccc3cc(O)ccc3c2Oc2ccc(OCCN3CCCCC3)cc2)cc1
- concentration at 6 h [1]: 277 ng/mL
- Efficacy (Ishikawa [4]): 96%
- IC50 (Ishikawa [4]): 4.7 nM
- ED50 (Rattus norvegicus [5]): < 1 mg/kg
- inhibition in vivo at 10 mg/kg (Rattus norvegicus [5]): 83%
- Ki (Estrogen receptor): 0.32 nM
- Kp [2]: 0.17
- concentration at 6 h [3]: 47 ng/g
- Efficacy (Ishikawa [6]): 13%
- Ki (Estrogen receptor beta): 0.48 nM
- ED50 (Rattus norvegicus [7]): 0.3 mg/kg
